Assay results: US12337000B2, “Therapeutic modulators of the reverse mode of ATP synthase” (priority 2017, dated 2025)
Entries after “also recorded” stand apart in the source; their conditions may differ. Read-outs that look alike come from different tables or passages of the source.

Assays:
[1] = tested on: 59 cancer cell lines (NCI-60); details: 10 μM, NCI-60 one-dose, NSC: 760347 in [16], cited from earlier work
[2] = 1.9 g/kg intraperitoneal, 24.5 to 25° C. ambient temperature [100]; cited from earlier work
[3] = mice, intraperitoneal injection (IP); cited from earlier work
[4] = Human pharmacokinetics of oral almitrine dimesylate; format: in vivo; details: human, plasma; single 200 mg oral dose, humans [121]; read-out: mean cmax plasma concentration
[5] = tested on: 59 cancer cell lines (NCI-60); assay: NCI-60 one-dose in vitro assay; format: cell-based, human; details: for anti-cancer activity (in words) / inhibition at 10 µM: 10 μM; for inhibition at 100 µM / inhibition at 10 µM: Homo sapiens; for inhibition at 10 µM: 48 hours, read-out: mean cancer growth inhibition, across all 59 cancer cell lines
Text: FIGS. 1, 2, 3, 4, 5, 6, 7, 8 show results from the NCI-60 one-dose in vitro assay at the Developmental Therapeutics Program (DTP), at the National Cancer Institute (NCI, Bethesda, MD, USA). Its protocol is well known to those of the art, and it tests the effect, if any, of a test compound on the growth/survivability of a cancer cell line as compared to the no compound control. […] However, a constant is that there is always representative cell lines from leukemia, melanoma and cancers of the lung, colon, brain, ovary, breast, prostate and kidney. In a one-dose NCI compound test report, NCI report a number for each cell line, which they call “Growth Percent”, which is its growth relative to the no-compound control, and relative to the time zero number of cells. This reported parameter allows detection of both growth inhibition (values between 0 and 100) and lethality (values less than 0). For example, an NCI “Growth Percent” value of 100 means no growth inhibition. Value of 40 means 60% growth inhibition. Value of 0 means no net growth over the course of the experiment. Value of −40 means 60% lethality. Value of −100 means all cells are dead. I don't present NCI one-dose data in this original format. Instead, if the NCI “Growth Percent” value for a cell is positive, it is manipulated: [100 minus this original NCI-60 “Growth Percent” data point], to yield the percentage “Growth Inhibition”. If the original NCI “Growth Percent” value for a cell is negative, it is made positive to be the percentage of original cancer cells (at time zero) killed: “Percentage Killed” {and in these cases, of course, all growth has been inhibited, so percentage “Growth Inhibition” is then specified to be 100% for this cancer cell line}. In my one-dose figures, “Growth Inhibition” (0-100%) is presented on the x-axis and, if applicable, “Percentage Killed” (0-100%) further along on the x-axis. The latter is applicable when there is not just cancer growth inhibition but a reduction in the number of cancer cells from the start time i.e. when the compound is not merely slowing cancer growth, but is actively reducing the number of cancer cells from the starting number. In cases where there is only growth inhibition, only “Growth inhibition” is presented on the x-axis.
NCI-60 tests are performed at a controlled temperature of 37° C..
To perform the anti-cancer testing reported: BMS-199264 hydrochloride was purchased from Sigma-Aldrich. BTB06584 was purchased from AdooQ Bioscience, Irvine, CA, USA. Compounds 19a (separated into 6a and 6b stereoisomers) and 31 were synthesized by reaction schemes disclosed herein. Almitrine dimesylate was purchased from Ak Scientific, Palo Alto, CA, USA.

[6] = cited from earlier work
[7] = tested on: 59 different cancer cell lines (NCI-60); details: NCI-60 five-dose, from Table 1 of [30]; cited from earlier work
[8] = tested on: HL-1 cardiac muscle cell line; details: 3 μM, HL-1 cells, data from [12]; cited from earlier work
F1F0 ATP synthesis = target: T1, F1F0 ATP synthesis (Bos taurus, UniProt P00829+P19483); details: SMP assays, [5-8]; cited from earlier work
T1 construct: are from sub-mitochondrial (SMP) studies in [5-8]; from tissue; host or cells: sub-mitochondrial particles (SMPs)

[9] = tested on: 59 different cancer cell lines (NCI-60); assay: NCI-60 five-dose in vitro assay; format: cell-based; details: Homo sapiens, read-out: mean GI50 of all 59 cell lines
Text: Results are from the NCI-60 five-dose in vitro assay at the Developmental Therapeutics Program (DTP), at the National Cancer Institute (NCI, Bethesda, MD, USA). […] These graphs are as outputted by the NCI but changed from colour to black and white. On the y-axis of each is the aforementioned “Growth Percent” parameter used by NCI, which is growth relative to the no-compound control, and relative to the time zero number of cells.

ex vivo rat heart = details: 10 μM [11]; cited from earlier work
F1F0 ATP hydrolase = target: T2, F1F0 ATP hydrolase (Bos taurus, UniProt P00829+P19483); details: cited from earlier work; for IC50: [5-6], read-out: IC50 reverse mode of ATP synthase
T2 construct: from tissue; host or cells: sub-mitochondrial particles (SMPs)

[10] = Enantiomeric excess (ee) stability experiments; format: physicochemical; details: FIG. 16
Text: FIG. 16. The enantiomeric excess (ee) of 6a and 6b is […] in presented ee stability experiments. […] This ee instability in biological media is an unexpected result. This finding is componentry to the invention of this disclosure, as are any modifications to the structure of 6a or 6b to slow their ee erosion due to epimerization/racemization. The ee instability is unexpected because it runs contrary to theory. The 2nd order rate constant (kgb) for general-base catalysed racemization can be predicted for 6a and 6b by theory from (and its supplementary information, all incorporated by reference). Joined to the stereogenic carbon of 6a and 6b there is a phenyl group, alkyl and a guanidine group: ΣΔΔG(R1,R2,R3)=[…]=−36.2 kcal/mol. The value for the guanidine group (19.1) is not from but from one of its authors, Dr. Andrew Leach, by personal communication, who sourced it by quantum mechanical calculation with the Gaussian 03 software package. The cross-conjugation correction was not applied in this case because Dr. Leach wrote “I would not expect guanidine to be a conjugating group”. log(kgb)=−0.11*ΣΔΔG(R1,R2,R3)−9.81, ∴Kgb=0.00000148593 M^−1s^−1. This is not particularly fast. Racemization might occur faster for 6a and 6b in cells than predicted by theory because their high lipophibicity concentrates them in biological membranes. […]

[11] = In vivo mouse study of 6a and 6b, rectal temperature and survival at 22° C. room temperature; design: species or system Mus Musculus C57BL/6; details: for effect on rectal temperature (in words): in vivo, iv
Procedure: FIG. 15. In vivo study of compounds 6a and 6b, conducted at 22° C. room temperature. METHODOLOGY: 4 mice were used and in the presented table “Day” refers to the number of days since the 1st drug/vehicle dose on Day 1. Some experimental details: intravenous (IV) administration (tail vein), dosing volume=10 μl/g, solution (not suspension), sterilised (0.22 μm filter) vortexed vehicle=12.5% solutol, 12.5% ethanol, 75% water, IV solutions freshly prepared before injection except on days 22 and 39 when solutions prepared on previous dosing days were used (sub-optimal), Female Mus Musculus C57BL/6 strain, 6-8 weeks old at study start, mice sourced from Shanghai Lingchang Bio-Technology Co. Ltd, mice were observed/quarantined for a few days after arrival and before dosing, ad libitum Co^60 irradiation sterilized dry granule food & reverse osmosis autoclaved water, corn cob bedding, polysulfone individually ventilated cage (IVC, containing up to 5 animals): 325 mm×210 mm×180 mm, 12 hour light/dark cycle, 40-70% humidity, 20-26° C. room temperature, StudyDirector™ software (Studylog Systems, Inc. CA, USA) used to allocate/randomize control/treatment groups, animals marked by ear coding (notch), care and use of animals in accordance with the regulations of the Association for Assessment and Accreditation of Laboratory Animal Care (AAALAC), when recording rectal temperature: care was taken to ensure constant depth of probe insertion across different recordings, time was afforded for rectal probe temperature to equilibrate with rectal temperature, and time was afforded between recordings for probe temperature to reset.

[12] = target: forward mode of ATP synthase (Homo sapiens, UniProt P06576+P25705+P48047); details: [P4]; cited from earlier work
[13] = target: reverse mode of ATP synthase (Homo sapiens, UniProt P06576+P25705+P48047); details: [P4]; cited from earlier work
[14] = read-out: median cancer growth inhibition

## CCN1CC(CCN2CCOCC2)C(c2ccccc2)(c2ccccc2)C1=O (centres unmarked) [Doxapram]
[1]
  median % cancer growth inhibition: −2.3%
[1]; negative = growth promotion
  mean % cancer growth inhibition: −3.7%

## CCO [ethanol]
[2]
  reduction of body temperature: 1.6 °C

## C=CCNc1nc(NCC=C)nc(N2CCN(C(c3ccc(F)cc3)c3ccc(F)cc3)CC2)n1.CS(=O)(=O)O [almitrine dimesylate, 6-[4-[bis(4-fluorophenyl)methyl]piperazin-1-yl]-2-N,4-N-bis(prop-2-enyl)-1,3,5-triazine-2,4-diamine methanesulfonic acid]
[3]
  LD50: 370 mg/kg
[4]
  Cmax: 600 nM
[5]
  anti-cancer activity (in words): Anti-cancer activity
[5]; listed as almitrine dismesylate
  anti-cancer activity (in words): greater anti-cancer activity than carboplatin
[6]; 24 hours after 200 mg oral dose [121]
  plasma [almitrine]: ~50 ng/mL
[6]; humans [121]
  oral bioavailability: 70%
[6]; single 150 mg oral dose, humans [123]
  mean cmax plasma concentration: 379 ng/mL
[6]; single 200 mg oral dose, humans [121]
  mean cmax plasma concentration: 286 ng/mL

## N.N.[Cl][Pt][Cl] [cisplatin]
[7]
  GI50: 1.4 µM

## CC[C@H]1/C=C/C=C/C[C@@H](C)[C@H](O)[C@@](C)(O)C(=O)[C@@H](C)[C@H](O)[C@@H](C)C(=O)[C@@H](C)[C@H](O)[C@@H](C)/C=C/C(=O)O[C@@H]2[C@H](C)[C@H](CC1)O[C@@]1(O[C@@H](C[C@@H](C)O)[C@@H](C)CC1=O)[C@H]2C [Oligomycin B]
[8]
  change of O2 consumption: −40%

## CC1(C)Oc2ccc(S(=O)(=O)N3CCCCC3)cc2[C@@H](N(Cc2ncc[nH]2)c2ccc(Cl)cc2)[C@@H]1O [BMS-199264]
F1F0 ATP synthesis
  EC50: 18 µM
[9]
  GI50: 3.9 µM
[5]; read-out: Mean % cancer growth inhibition
  inhibition at 100 µM: > 100%
Ex vivo rat heart
  harm to normal cells (ex vivo rat heart): doesn't harm; also recorded: does not harm

## N#Cc1cccc(C(=O)/N=C(\Nc2ccc(Cl)cc2)N[C@H](Cn2ccnc2)c2ccc(Cl)cc2Cl)c1 [Compound 6b]
[9]
  GI50: 0.446 µM
[5]
  inhibition at 10 µM: 66%
[5]; [14]
  inhibition at 100 µM: > 79%
F1F0 ATP hydrolase
  IC50: 0.018 µM
[10]
  enantiomeric excess (ee) stability: stable
[11]; 20 mg/kg IV
  time to death after IV injection: ~210 min
[11]; 40 mg/kg IV, found dead the next day
  survival time after IV injection: > 6 h
[11]; mouse
  effect on rectal temperature (in words): potently reduces rectal temperature

## N#Cc1cccc(C(=O)/N=C(\Nc2ccc(Cl)cc2)N[C@@H](Cn2ccnc2)c2ccc(Cl)cc2Cl)c1 [Compound 6a]
[9]
  GI50: 0.666 µM
[5]
  inhibition at 10 µM: 57%
[5]; [14]
  inhibition at 100 µM: > 79%
F1F0 ATP hydrolase; SMP studies in [5-8], read-out: EC50 F1F0 ATP hydrolysis / hydrolase
  EC50: > 100 µM
F1F0 ATP hydrolase
  IC50: > 100 µM
[10]
  enantiomeric excess (ee) stability: stable
[11]; female, C57BL/6, in vivo, mouse, IV
  LD50: > 40 mg/kg
[11]; mouse
  effect on rectal temperature (in words): does not

## CN1C(=O)C(Cc2ccc3ccccc3c2)N=C(c2ccc(O)cc2)c2cc(Cl)ccc21 (centres unmarked) [Bz-423]
[12]
  EC50: 5.5 µM
[13]
  EC50: 8.9 µM
